Test results reported in PubChem BioAssay (NCI).
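Interpolation was linear, between the two tested concentrations surrounding the appropriate level; five concentrations were tested over 48 hours in 96-well plates. Definition used: TGI = concentration required for complete inhibition of growth.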

Assays:
Experiment in all cases: inhibition of tumour cell growth, NCI panel, 48 h
OVCAR-4 ovarian = tested on: OVCAR-4 ovarian
OVCAR-8 ovarian = tested on: OVCAR-8 ovarian
SNB-19 CNS = tested on: SNB-19 CNS
ACHN renal = tested on: ACHN renal
UACC-62 melanoma = tested on: UACC-62 melanoma
RPMI-8226 leukemia = tested on: RPMI-8226 leukemia
NCI-H522 lung = tested on: NCI-H522 lung
OVCAR-3 ovarian = tested on: OVCAR-3 ovarian
HCT-116 colon = tested on: HCT-116 colon
CAKI-1 renal = tested on: CAKI-1 renal
SN12C renal = tested on: SN12C renal
A498 renal = tested on: A498 renal

Row | Structure (SMILES) | TGI (OVCAR-4 ovarian) [µM] | TGI (OVCAR-8 ovarian) [µM] | TGI (SNB-19 CNS) [µM] | TGI (ACHN renal) [µM] | TGI (UACC-62 melanoma) [µM] | TGI (RPMI-8226 leukemia) [µM] | TGI (NCI-H522 lung) [µM] | TGI (OVCAR-3 ovarian) [µM] | TGI (HCT-116 colon) [µM] | TGI (CAKI-1 renal) [µM] | TGI (SN12C renal) [µM] | TGI (A498 renal) [µM]
1 | COc1ccc(NS(=O)c2ccc(OC)cc2)cc1 (stereo not drawn) | > 100 | > 100 | > 100 | > 100 | 66.2 | > 100 | > 100 | > 100 | > 100 | > 100 | > 100 | 
2 | O=C1NC(=NC2CCCCC2)C2(CCN(CCCC3(c4ccc(F)cc4)OCCO3)CC2)N1c1ccccc1 | 50.2 | 64.9 | 35 | 28.4 |  | 64.5 | 34.1 | 25.6 | 24.7 | 50.3 | 37.5 | 
3 | CC(=O)OC[C@@H](OC(C)=O)[C@@H](OC(C)=O)[C@H]1OC[C@@H]2C[C@H]([C@H]1OC(C)=O)N(Cc1ccccc1)O2 | > 100 |  | > 100 | > 100 | > 100 | > 100 |  | > 100 | > 100 | > 100 | > 100 | 
4 | COC(=O)c1c(O)ccc2c1c1c(n2-c2ccc(OC)cc2)C(=O)c2ccccc2C1=O | 38.2 | 33.7 | 44.7 | 25.6 |  | > 100 | 56.3 | 65.2 | 30.6 | 66 | > 100 | > 100
5 | COC1=CC(=O)[C@]2(C)[C@H](C1=O)C(C)[C@H]2c1ccccc1 (stereo partly drawn) | > 100 | > 100 | > 100 | > 100 | > 100 | > 100 | > 100 | > 100 |  | > 100 |  | > 100
6 | O=C1c2ccccc2-c2c1c(-c1ccccc1)c1n2C2(C(=O)c3ccccc3C2=O)C2C(=O)N(c3ccccc3)C(=O)C12 (stereo not drawn) | > 100 | > 100 | > 100 | > 100 | 49 |  | 33.6 | 51.1 | 37.8 | > 100 | 61.4 | > 100
7 | CC(=O)N1N=C(c2c(O)ccc3ccccc23)CC1c1ccc(Cl)cc1 (stereo not drawn) | > 100 | > 100 |  | > 100 | 27.6 | 45.8 | > 100 | 32.1 | 28.4 | > 100 | 39.3 | 66.3
8 | O=C(/C=C(\O)c1ccc(Cl)cc1)C(=O)NN=C(c1ccccc1)c1ccccc1 | > 100 | 97.6 | > 100 | > 100 | > 100 |  | 49 | > 100 | > 100 | > 100 | > 100 | 47.2
9 | CC[N+]1(C)CCC(O)(/C=C/c2ccc(Cl)cc2)C(C(=O)/C=C/c2ccc(Cl)cc2)C1 (stereo not drawn) | > 67.2 | 51 | 17.4 | 13.6 | 37.4 |  |  | > 61 | 29.1 | 3.71 | 27.1 | 30.2
10 | COc1ccc2nc3ccc(OC)cc3c(SCC3CO3)c2c1 (stereo not drawn) | 38.1 | 25.7 | 80.4 | 21.7 |  | 74.6 | 33.2 | 28.5 | 22.7 | 19.1 | 27.4 | > 100
11 | COc1ccc2c(c1)N=C1CSC(c3c(Cl)cccc3[N+](=O)[O-])N1C2 (stereo not drawn) | > 100 | > 100 | > 100 | > 100 | 48.1 | 84.6 | > 100 |  | > 100 | > 100 | > 100 | 
12 | CCN1C[C@]2(C)CC[C@H](OCc3ccccc3)C34C5C[C@@H]6CC[C@](O)(C(C[C@@H]32)C14)C5[C@H]6OCc1ccccc1 (stereo partly drawn) | > 100 | > 100 | > 100 | > 100 | > 100 | > 100 |  | > 100 | > 100 |  | > 100 | > 100
13 | Cc1nn(C(=O)Cc2ccccc2)c2c1C(c1ccccc1[N+](=O)[O-])SC(N)=N2 (stereo not drawn) |  | > 100 | > 100 | > 100 | > 100 | > 100 | > 100 |  | > 100 | > 100 | > 100 | > 100
14 | ClCc1ccc2ccc3ccc(CCl)nc3c2n1 | 14.5 |  | 27.9 |  | 2.64 | 13.1 | 3.44 | 4.81 | 3.44 |  |  | 22.4
15 | CC1SC(=O)SC1C (stereo not drawn) | > 100 | > 100 | > 100 | > 100 |  | > 100 | > 100 |  | > 100 |  | > 100 | 
16 | O=C(Cc1ccccc1)NNc1nc(NNC(=O)c2ccncc2)nc(Nc2ccc(Cl)cc2)n1 | > 10 | > 10 |  |  | > 10 | > 10 |  |  |  | > 10 | > 10 | 
17 | COc1cc(C2(O)c3ccccc3C3=NCCN32)cc(OC)c1OC (stereo not drawn) | > 100 |  | > 100 | > 100 | > 100 | > 100 |  | > 100 | > 100 | > 100 | > 100 | > 100
18 | [C-]#[N+]C1(C(=O)OCC)CC1 | > 100 | > 100 | > 100 | > 100 | > 100 | > 100 | > 100 | > 100 | > 100 |  | > 100 | > 100
19 | O=C1c2c(nc3ccccc3c2-c2ccccc2)CN1Nc1ccccc1 | > 100 | > 100 |  |  | > 100 | > 100 | > 100 | > 100 | > 100 | > 100 | > 100 | 
20 | N#CN1CCC=C(c2cc3ccccc3[nH]2)C1 |  | > 448 | > 448 | > 448 | > 448 | > 448 | 298 | 339 | > 448 | > 448 | > 448 | 
21 | O=C(CN1CCOCC1)Nc1ccc2c(c1)C1Oc3ccccc3CC1CO2 (stereo not drawn) |  | > 100 | > 100 | > 100 | > 100 | > 100 | > 100 | > 100 | > 100 | > 100 | > 100 | > 100
